Experimental data published in ChEMBL document CHEMBL4138084, “Structure-activity relationship study of the tumour-targeting peptide A20FMDV2 via modification of Lys16, Leu13, and N- and/or C-terminal functionality” (Eur J Med Chem, 2017).

Columns and labels:
Integrin alpha-V/beta-6 [1] = biological target: T1, Integrin alpha-V/beta-6 (Homo sapiens, UniProt P06756+P18564); assay: Binding affinity to alphav/beta6 integrin in human A375Pbeta6 cells at 100 nM after 15 mins by flow cytometric analysis relative to biotinylated A20FMDV2; assay type: cell-based
[2] = Drug uptake in human A375PPuro cells at 1000 nM after 15 mins by flow cytometric analysis; assay type: ADME, cell-based; conditions: 0.25 h, 1 µM
Integrin alpha-V/beta-6 [3] = biological target: T1, Integrin alpha-V/beta-6; assay: Binding affinity to alphav/beta6 integrin in human A375Pbeta6 cells assessed as drug internalization at 100 nM after 15 mins by flow cytometric analysis relative to biotinylated A20FMDV2; assay type: ADME, cell-based; conditions: 0.25 h, 0.1 µM
Target sequence in this assay (P06756 31-889 limits assumed): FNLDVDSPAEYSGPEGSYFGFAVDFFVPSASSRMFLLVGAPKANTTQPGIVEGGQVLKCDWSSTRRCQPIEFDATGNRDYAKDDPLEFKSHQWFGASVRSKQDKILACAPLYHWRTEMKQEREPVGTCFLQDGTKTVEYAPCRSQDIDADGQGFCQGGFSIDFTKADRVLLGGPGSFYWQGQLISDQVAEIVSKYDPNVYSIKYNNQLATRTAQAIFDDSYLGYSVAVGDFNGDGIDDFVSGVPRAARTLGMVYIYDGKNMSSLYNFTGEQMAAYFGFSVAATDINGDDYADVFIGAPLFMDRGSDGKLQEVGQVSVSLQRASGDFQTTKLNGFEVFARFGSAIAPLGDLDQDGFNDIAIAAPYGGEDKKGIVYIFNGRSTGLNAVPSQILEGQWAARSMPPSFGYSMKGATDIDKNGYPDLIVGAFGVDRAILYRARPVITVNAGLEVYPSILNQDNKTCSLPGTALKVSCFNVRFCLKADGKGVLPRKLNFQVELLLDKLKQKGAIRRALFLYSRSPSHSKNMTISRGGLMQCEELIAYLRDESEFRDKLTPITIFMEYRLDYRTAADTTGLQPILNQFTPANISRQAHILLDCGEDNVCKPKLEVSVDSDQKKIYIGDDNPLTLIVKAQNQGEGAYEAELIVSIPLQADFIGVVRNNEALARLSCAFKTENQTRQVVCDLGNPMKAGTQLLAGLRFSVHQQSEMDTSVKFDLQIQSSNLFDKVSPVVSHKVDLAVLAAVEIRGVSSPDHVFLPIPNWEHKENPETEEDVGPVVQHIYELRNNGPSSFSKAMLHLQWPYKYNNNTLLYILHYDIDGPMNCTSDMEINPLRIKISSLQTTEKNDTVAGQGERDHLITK
Target sequence in this assay (P06756 891-1048 limits assumed): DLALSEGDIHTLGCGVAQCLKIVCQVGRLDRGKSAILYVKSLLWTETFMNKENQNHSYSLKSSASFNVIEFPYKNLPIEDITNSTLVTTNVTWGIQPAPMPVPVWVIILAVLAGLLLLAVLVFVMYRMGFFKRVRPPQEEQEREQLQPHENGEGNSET
Target sequence in this assay (P18564 22-788 limits assumed): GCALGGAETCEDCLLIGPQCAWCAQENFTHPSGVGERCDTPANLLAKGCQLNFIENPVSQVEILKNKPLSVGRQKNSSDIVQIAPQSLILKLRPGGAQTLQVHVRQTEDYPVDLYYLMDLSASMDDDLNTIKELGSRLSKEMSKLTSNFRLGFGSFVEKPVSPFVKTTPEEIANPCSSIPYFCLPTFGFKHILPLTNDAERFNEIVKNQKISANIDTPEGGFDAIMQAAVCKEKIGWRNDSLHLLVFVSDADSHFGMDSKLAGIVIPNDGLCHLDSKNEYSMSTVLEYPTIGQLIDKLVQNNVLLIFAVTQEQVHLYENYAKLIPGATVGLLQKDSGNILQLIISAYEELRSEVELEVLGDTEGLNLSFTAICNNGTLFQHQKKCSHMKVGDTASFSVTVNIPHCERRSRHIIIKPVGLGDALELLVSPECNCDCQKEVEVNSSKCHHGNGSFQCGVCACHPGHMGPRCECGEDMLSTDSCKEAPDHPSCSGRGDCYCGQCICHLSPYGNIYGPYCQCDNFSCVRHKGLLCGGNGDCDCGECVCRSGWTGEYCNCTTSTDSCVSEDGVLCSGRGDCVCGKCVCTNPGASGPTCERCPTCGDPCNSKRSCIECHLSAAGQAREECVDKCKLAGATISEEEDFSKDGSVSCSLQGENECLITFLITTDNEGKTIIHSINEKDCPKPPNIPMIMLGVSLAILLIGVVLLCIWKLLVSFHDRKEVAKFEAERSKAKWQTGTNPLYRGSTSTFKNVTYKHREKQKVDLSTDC

| fold change (FC) (Integrin alpha-V/beta-6 [1]) | Drug uptake [2] | fold change (FC) (Integrin alpha-V/beta-6 [3]) | SMILES |
| --- | --- | --- | --- |
| 0.62 | Not Active | 1.01 | CC(C)C[C@H](NC(=O)[C@H](CC(=O)O)NC(=O)CNC(=O)[C@H](CCCNC(=N)N)NC(=O)[C@H](CC(C)C)NC(=O)[C@H](CC(N)=O)NC(=O)[C@@H]1CCCN1C(=O)[C@@H](NC(=O)[C@H](CCCCNC(=O)CCCC[C@@H]1SC[C@@H]2NC(=O)N[C@@H]21)NC(=O)[C@@H](N)CC(N)=O)C(C)C)C(=O)N[C@@H](CCC(N)=O)C(=O)N[C@H](C(=O)N[C@@H](CC1CCCCC1)C(=O)N[C@@H](C)C(=O)N[C@@H](CCC(N)=O)C(=O)N[C@@H](CCCCN)C(=O)N[C@H](C(=O)N[C@@H](C)C(=O)N[C@@H](CCCNC(=N)N)C(=O)N[C@H](C(=O)O)[C@@H](C)O)C(C)C)C(C)C |
| 1 | Not Active | 0.86 | CC(C)C[C@H](NC(=O)[C@H](CC(=O)O)NC(=O)CNC(=O)[C@H](CCCNC(=N)N)NC(=O)[C@H](CC(C)C)NC(=O)[C@H](CC(N)=O)NC(=O)[C@@H]1CCCN1C(=O)[C@@H](NC(=O)[C@H](CCCCNC(=O)CCCC[C@@H]1SC[C@@H]2NC(=O)N[C@@H]21)NC(=O)[C@@H](N)CC(N)=O)C(C)C)C(=O)N[C@@H](CCC(N)=O)C(=O)N[C@H](C(=O)N[C@@H](CC(C)C)C(=O)N[C@@H](C)C(=O)N[C@@H](CCC(N)=O)C(=O)N[C@@H](CCN)C(=O)N[C@H](C(=O)N[C@@H](C)C(=O)N[C@@H](CCCNC(=N)N)C(=O)N[C@H](C(=O)O)[C@@H](C)O)C(C)C)C(C)C |
| 1.12 | Not Active | 0.86 | CC(C)C[C@H](NC(=O)[C@H](CC(=O)O)NC(=O)CNC(=O)[C@H](CCCNC(=N)N)NC(=O)[C@H](CC(C)C)NC(=O)[C@H](CC(N)=O)NC(=O)[C@@H]1CCCN1C(=O)[C@@H](NC(=O)[C@H](CCCCNC(=O)CCCC[C@@H]1SC[C@@H]2NC(=O)N[C@@H]21)NC(=O)[C@@H](N)CC(N)=O)C(C)C)C(=O)N[C@@H](CCC(N)=O)C(=O)N[C@H](C(=O)N[C@@H](CC(C)C)C(=O)N[C@@H](C)C(=O)N[C@@H](CCC(N)=O)C(=O)N[C@@H](CCCN)C(=O)N[C@H](C(=O)N[C@@H](C)C(=O)N[C@@H](CCCNC(=N)N)C(=O)N[C@H](C(=O)O)[C@@H](C)O)C(C)C)C(C)C |
| 1.16 | Not Active | 1.15 | CCCC[C@H](NC(=O)[C@@H](NC(=O)[C@H](CCC(N)=O)NC(=O)[C@H](CC(C)C)NC(=O)[C@H](CC(=O)O)NC(=O)CNC(=O)[C@H](CCCNC(=N)N)NC(=O)[C@H](CC(C)C)NC(=O)[C@H](CC(N)=O)NC(=O)[C@@H]1CCCN1C(=O)[C@@H](NC(=O)[C@H](CCCCNC(=O)CCCC[C@@H]1SC[C@@H]2NC(=O)N[C@@H]21)NC(=O)[C@@H](N)CC(N)=O)C(C)C)C(C)C)C(=O)N[C@@H](C)C(=O)N[C@@H](CCC(N)=O)C(=O)N[C@@H](CCCCN)C(=O)N[C@H](C(=O)N[C@@H](C)C(=O)N[C@@H](CCCNC(=N)N)C(=O)N[C@H](C(=O)O)[C@@H](C)O)C(C)C |
| 0.45 | Not Active | 0.66 | CC(C)CC[C@H](NC(=O)[C@@H](NC(=O)[C@H](CCC(N)=O)NC(=O)[C@H](CC(C)C)NC(=O)[C@H](CC(=O)O)NC(=O)CNC(=O)[C@H](CCCNC(=N)N)NC(=O)[C@H](CC(C)C)NC(=O)[C@H](CC(N)=O)NC(=O)[C@@H]1CCCN1C(=O)[C@@H](NC(=O)[C@H](CCCCNC(=O)CCCC[C@@H]1SC[C@@H]2NC(=O)N[C@@H]21)NC(=O)[C@@H](N)CC(N)=O)C(C)C)C(C)C)C(=O)N[C@@H](C)C(=O)N[C@@H](CCC(N)=O)C(=O)N[C@@H](CCCCN)C(=O)N[C@H](C(=O)N[C@@H](C)C(=O)N[C@@H](CCCNC(=N)N)C(=O)N[C@H](C(=O)O)[C@@H](C)O)C(C)C |
| 0.77 | Not Active | 1.09 | CCC[C@H](NC(=O)[C@@H](NC(=O)[C@H](CCC(N)=O)NC(=O)[C@H](CC(C)C)NC(=O)[C@H](CC(=O)O)NC(=O)CNC(=O)[C@H](CCCNC(=N)N)NC(=O)[C@H](CC(C)C)NC(=O)[C@H](CC(N)=O)NC(=O)[C@@H]1CCCN1C(=O)[C@@H](NC(=O)[C@H](CCCCNC(=O)CCCC[C@@H]1SC[C@@H]2NC(=O)N[C@@H]21)NC(=O)[C@@H](N)CC(N)=O)C(C)C)C(C)C)C(=O)N[C@@H](C)C(=O)N[C@@H](CCC(N)=O)C(=O)N[C@@H](CCCCN)C(=O)N[C@H](C(=O)N[C@@H](C)C(=O)N[C@@H](CCCNC(=N)N)C(=O)N[C@H](C(=O)O)[C@@H](C)O)C(C)C |
| 0.37 | Not Active | 0.89 | CC(C)C[C@H](NC(=O)[C@H](CC(=O)O)NC(=O)CNC(=O)[C@H](CCCNC(=N)N)NC(=O)[C@H](CC(C)C)NC(=O)[C@H](CC(N)=O)NC(=O)[C@@H]1CCCN1C(=O)[C@@H](NC(=O)[C@H](CCCCNC(=O)CCCC[C@@H]1SC[C@@H]2NC(=O)N[C@@H]21)NC(=O)[C@@H](N)CC(N)=O)C(C)C)C(=O)N[C@@H](CCC(N)=O)C(=O)N[C@H](C(=O)N[C@@H](CC(C)C)C(=O)N[C@@H](C)C(=O)N[C@@H](CCC(N)=O)C(=O)N(C)[C@@H](CCCCN)C(=O)N[C@H](C(=O)N[C@@H](C)C(=O)N[C@@H](CCCNC(=N)N)C(=O)N[C@H](C(=O)O)[C@@H](C)O)C(C)C)C(C)C |
| 0.53 | Not Active | 0.99 | CC(C)C[C@H](NC(=O)[C@H](CC(=O)O)NC(=O)CNC(=O)[C@H](CCCNC(=N)N)NC(=O)[C@H](CC(C)C)NC(=O)[C@H](CC(N)=O)NC(=O)[C@@H]1CCCN1C(=O)[C@@H](NC(=O)[C@H](CCCCNC(=O)CCCC[C@@H]1SC[C@@H]2NC(=O)N[C@@H]21)NC(=O)[C@@H](N)CC(N)=O)C(C)C)C(=O)N[C@@H](CCC(N)=O)C(=O)N[C@H](C(=O)N[C@@H](CC(C)C)C(=O)N[C@@H](C)C(=O)N[C@@H](CCC(N)=O)C(=O)N[C@@H](CCCCN)C(=O)N[C@H](C(=O)N[C@@H](C)C(=O)N[C@@H](CCCNC(=N)N)C(=O)N[C@@H](C(=O)O)[C@H](C)O)C(C)C)C(C)C |
| 1.48 | Not Active | 1.05 | CC(=O)N(C(=O)CN(CCN(CCN(CC(=O)O)CC(=O)O)CC(=O)O)CC(=O)O)[C@@H](CC(N)=O)C(=O)N[C@@H](CCCCNC(=O)CCCC[C@@H]1SC[C@@H]2NC(=O)N[C@@H]21)C(=O)N[C@H](C(=O)N1CCC[C@H]1C(=O)N[C@@H](CC(N)=O)C(=O)N[C@@H](CC(C)C)C(=O)N[C@@H](CCCNC(=N)N)C(=O)NCC(=O)N[C@@H](CC(=O)O)C(=O)N[C@@H](CC(C)C)C(=O)N[C@@H](CCC(N)=O)C(=O)N[C@H](C(=O)N[C@@H](CC(C)C)C(=O)N[C@@H](C)C(=O)N[C@@H](CCC(N)=O)C(=O)N[C@@H](CCCCN)C(=O)N[C@H](C(=O)N[C@@H](C)C(=O)N[C@@H](CCCNC(=N)N)C(=O)N[C@H](C(=O)O)[C@@H](C)O)C(C)C)C(C)C)C(C)C |
| 0.79 | Not Active | 0.96 | CC(C)C[C@H](NC(=O)[C@H](CC(=O)O)NC(=O)CNC(=O)[C@H](CCCNC(=N)N)NC(=O)[C@H](CC(C)C)NC(=O)[C@H](CC(N)=O)NC(=O)[C@@H]1CCCN1C(=O)[C@@H](NC(=O)[C@H](CCCCNC(=O)CCCC[C@@H]1SC[C@@H]2NC(=O)N[C@@H]21)NC(=O)[C@@H](N)CC(N)=O)C(C)C)C(=O)N[C@@H](CCC(N)=O)C(=O)N[C@H](C(=O)N[C@@H](CC(C)C)C(=O)N[C@@H](C)C(=O)N[C@@H](CCC(N)=O)C(=O)N[C@@H](CN)C(=O)N[C@H](C(=O)N[C@@H](C)C(=O)N[C@@H](CCCNC(=N)N)C(=O)N[C@H](C(=O)O)[C@@H](C)O)C(C)C)C(C)C |
| 0.58 | Not Active | 0.82 | C=CC[C@H](NC(=O)[C@@H](NC(=O)[C@H](CCC(N)=O)NC(=O)[C@H](CC(C)C)NC(=O)[C@H](CC(=O)O)NC(=O)CNC(=O)[C@H](CCCNC(=N)N)NC(=O)[C@H](CC(C)C)NC(=O)[C@H](CC(N)=O)NC(=O)[C@@H]1CCCN1C(=O)[C@@H](NC(=O)[C@H](CCCCNC(=O)CCCC[C@@H]1SC[C@@H]2NC(=O)N[C@@H]21)NC(=O)[C@@H](N)CC(N)=O)C(C)C)C(C)C)C(=O)N[C@@H](C)C(=O)N[C@@H](CCC(N)=O)C(=O)N[C@@H](CCCCN)C(=O)N[C@H](C(=O)N[C@@H](C)C(=O)N[C@@H](CCCNC(=N)N)C(=O)N[C@H](C(=O)O)[C@@H](C)O)C(C)C |
| 0.51 | Not Active | 1.07 | CC(C)C[C@H](NC(=O)[C@H](CC(=O)O)NC(=O)CNC(=O)[C@H](CCCNC(=N)N)NC(=O)[C@H](CC(C)C)NC(=O)[C@H](CC(N)=O)NC(=O)[C@@H]1CCCN1C(=O)[C@@H](NC(=O)[C@H](CCCCNC(=O)CCCC[C@@H]1SC[C@@H]2NC(=O)N[C@@H]21)NC(=O)[C@@H](N)CC(N)=O)C(C)C)C(=O)N[C@@H](CCC(N)=O)C(=O)N[C@H](C(=O)N[C@H](C(=O)N[C@@H](C)C(=O)N[C@@H](CCC(N)=O)C(=O)N[C@@H](CCCCN)C(=O)N[C@H](C(=O)N[C@@H](C)C(=O)N[C@@H](CCCNC(=N)N)C(=O)N[C@H](C(=O)O)[C@@H](C)O)C(C)C)C12CC3CC(CC(C3)C1)C2)C(C)C |
| 1.25 | Not Active | 0.87 | CC(=O)N[C@@H](CC(N)=O)C(=O)N[C@@H](CCCCNC(=O)CCCC[C@@H]1SC[C@@H]2NC(=O)N[C@@H]21)C(=O)N[C@H](C(=O)N1CCC[C@H]1C(=O)N[C@@H](CC(N)=O)C(=O)N[C@@H](CC(C)C)C(=O)N[C@@H](CCCNC(=N)N)C(=O)NCC(=O)N[C@@H](CC(=O)O)C(=O)N[C@@H](CC(C)C)C(=O)N[C@@H](CCC(N)=O)C(=O)N[C@H](C(=O)N[C@@H](CC(C)C)C(=O)N[C@@H](C)C(=O)N[C@@H](CCC(N)=O)C(=O)N[C@@H](CCCCN)C(=O)N[C@H](C(=O)N[C@@H](C)C(=O)N[C@@H](CCCNC(=N)N)C(=O)N[C@H](C(N)=O)[C@@H](C)O)C(C)C)C(C)C)C(C)C |
